The target of one assay is HSV-1 DNA polymerase (Human herpesvirus 1, UniProt P04293). Put plainly: HSV-1 DNA polymerase enzyme assay. In kind it is biochemical. To be noted: calf thymus DNA.
In the next assay the target is HCMV DNA polymerase (Human cytomegalovirus, UniProt P08546). The assay can be described thus: HCMV DNA polymerase enzyme assay. It counts as biochemical. To be noted: calf thymus DNA.
Assay [1] concerns the target T1, cellular DNA polymerase α (Homo sapiens, UniProt P09884).
T1 sequence (P09884 1-1462): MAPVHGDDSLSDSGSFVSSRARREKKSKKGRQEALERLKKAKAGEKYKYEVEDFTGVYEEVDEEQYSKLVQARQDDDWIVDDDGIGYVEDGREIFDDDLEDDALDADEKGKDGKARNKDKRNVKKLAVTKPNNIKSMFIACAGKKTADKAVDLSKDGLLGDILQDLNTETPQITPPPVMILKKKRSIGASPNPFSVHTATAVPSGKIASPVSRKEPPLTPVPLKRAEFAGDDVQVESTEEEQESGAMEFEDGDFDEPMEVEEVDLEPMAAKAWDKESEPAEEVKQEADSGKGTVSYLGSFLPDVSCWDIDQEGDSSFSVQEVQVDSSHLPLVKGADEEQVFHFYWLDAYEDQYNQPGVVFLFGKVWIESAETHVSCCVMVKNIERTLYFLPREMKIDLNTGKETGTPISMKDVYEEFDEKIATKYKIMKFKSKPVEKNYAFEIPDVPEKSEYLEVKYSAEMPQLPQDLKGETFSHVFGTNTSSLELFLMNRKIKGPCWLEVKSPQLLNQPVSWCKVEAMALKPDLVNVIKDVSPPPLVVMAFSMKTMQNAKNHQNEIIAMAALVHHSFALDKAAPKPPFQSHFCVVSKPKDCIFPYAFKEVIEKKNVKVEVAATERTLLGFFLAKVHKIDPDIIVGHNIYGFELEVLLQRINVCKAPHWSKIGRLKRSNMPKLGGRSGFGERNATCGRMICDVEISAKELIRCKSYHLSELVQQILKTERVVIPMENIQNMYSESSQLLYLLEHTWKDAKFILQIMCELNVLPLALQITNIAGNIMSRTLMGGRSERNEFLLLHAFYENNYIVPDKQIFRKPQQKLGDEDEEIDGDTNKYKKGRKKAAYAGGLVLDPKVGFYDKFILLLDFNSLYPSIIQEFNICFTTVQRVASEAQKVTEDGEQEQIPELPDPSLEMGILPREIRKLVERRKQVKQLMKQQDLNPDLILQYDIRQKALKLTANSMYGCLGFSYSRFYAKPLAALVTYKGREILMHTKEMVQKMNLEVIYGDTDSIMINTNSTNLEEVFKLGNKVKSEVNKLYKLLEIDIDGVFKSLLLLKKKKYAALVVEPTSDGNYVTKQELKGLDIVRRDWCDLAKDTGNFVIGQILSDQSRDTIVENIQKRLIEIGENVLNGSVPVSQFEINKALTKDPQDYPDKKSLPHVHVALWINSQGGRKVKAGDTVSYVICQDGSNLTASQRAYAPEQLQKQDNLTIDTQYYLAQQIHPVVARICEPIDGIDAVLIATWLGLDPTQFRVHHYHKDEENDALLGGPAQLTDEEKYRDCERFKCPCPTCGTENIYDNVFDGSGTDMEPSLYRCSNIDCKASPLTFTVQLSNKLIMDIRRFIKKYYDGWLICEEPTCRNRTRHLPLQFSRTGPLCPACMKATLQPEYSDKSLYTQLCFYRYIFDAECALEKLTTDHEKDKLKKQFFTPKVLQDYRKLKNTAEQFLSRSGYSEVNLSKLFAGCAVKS
Put plainly: Cellular DNA polymerase α assay. It counts as biochemical.

The target of assay [2] is cellular DNA polymerase β (Homo sapiens, UniProt P06746). Put plainly: Cellular DNA polymerase β assay. In kind it is biochemical.
A further assay deals with HIV-1 RT (Human immunodeficiency virus type 1 group M subtype B, UniProt P04585). Put plainly: HIV-1 RT assay with homopolymeric template/primers. In kind it is biochemical.
The subject of another assay is HIV-1 RT F61A. Put plainly: Mutant HIV-1 RT assay F61A. It counts as biochemical.
A further assay has as its system HIV-1 RT K65R. The assay can be described thus: Mutant HIV-1 RT assay K65R. It counts as biochemical.
In a further assay the test system is HIV-1 RT K70E. The assay can be described thus: Mutant HIV-1 RT assay K70E. In kind it is biochemical.
In another assay the test system is HIV-1 RT K70Q. The assay can be described thus: Mutant HIV-1 RT assay K70Q. It counts as biochemical. The following applies: Poly rI.dC [^3H]dCTP.
The test system of a further assay is HIV-1 RT K70R. The assay can be described thus: Mutant HIV-1 RT assay K70R. It counts as biochemical. The following applies: Poly rA.dT [^3H]dTTP.
Another assay relates to HIV-1 RT V75I. The assay can be described thus: Mutant HIV-1 RT assay V75I. In kind it is biochemical. The following applies: Poly rA.dT [^3H]dTTP.
In the next assay the test system is HIV-1 RT E138K. The assay can be described thus: Mutant HIV-1 RT assay E138K. It counts as biochemical.
In the next assay the test system is HIV-1 RT Q151M. The assay can be described thus: Mutant HIV-1 RT assay Q151M. In kind it is biochemical.
The test system of a further assay is HIV-1 RT M184I. The assay can be described thus: Mutant HIV-1 RT assay M184I. In kind it is biochemical. To be noted: Poly rI.dC [^3H]dCTP.
The subject of the next assay is HIV-1 RT M184V. Put plainly: Mutant HIV-1 RT assay M184V. It counts as biochemical. To be noted: Poly rI.dC [^3H]dCTP.
In another assay the test system is HIV-1 RT M184I + E138K. Put plainly: Mutant HIV-1 RT assay M184I + E138K. In kind it is biochemical.
Another assay deals with HIV-1 RT M184V + Y115F. The assay can be described thus: Mutant HIV-1 RT assay M184V + Y115F. To be noted: Poly rI.dC [^3H]dCTP. In kind it is biochemical.
In another assay the test system is HIV-1 RT M184V + E138K. Put plainly: Mutant HIV-1 RT assay M184V + E138K. The following applies: Poly rI.dC [^3H]dCTP. It counts as biochemical.
In a further assay the test system is HIV-1 RT L100I. The following applies: Poly rA.dT [^3H]dTTP.
The mark [3] stands for this setting: read-out: IC50 HIV-1 RT, poly rA.dT, [^3H]dTTP.
Where [4] appears, read: read-out: IC50 HIV-1 RT, poly rC.dG, [^3H]dGTP.
Setting [5] is: read-out: IC50 HSV-1 DNA pol, [^3H]dGTP.
The mark [6] stands for this setting: read-out: IC50 HSV-1 DNA pol, [^3H]dTTP.
Where [7] appears, read: read-out: IC50 HCMV DNA pol, [^3H]dGTP.
[8] abbreviates: read-out: IC50 HCMV DNA pol, [^3H]dTTP.
The mark [9] stands for this setting: read-out: IC50 α DNA pol, calf thymus DNA, [^3H]dGTP.
The mark [10] stands for this setting: read-out: IC50 β DNA pol, calf thymus DNA, [^3H]dGTP.

Where two headings read alike, the source gives them in different places.

As a reminder, the IC50 is the midpoint of a concentration-inhibition curve.

Chain of HSV-1 DNA polymerase (P04293 whole entry): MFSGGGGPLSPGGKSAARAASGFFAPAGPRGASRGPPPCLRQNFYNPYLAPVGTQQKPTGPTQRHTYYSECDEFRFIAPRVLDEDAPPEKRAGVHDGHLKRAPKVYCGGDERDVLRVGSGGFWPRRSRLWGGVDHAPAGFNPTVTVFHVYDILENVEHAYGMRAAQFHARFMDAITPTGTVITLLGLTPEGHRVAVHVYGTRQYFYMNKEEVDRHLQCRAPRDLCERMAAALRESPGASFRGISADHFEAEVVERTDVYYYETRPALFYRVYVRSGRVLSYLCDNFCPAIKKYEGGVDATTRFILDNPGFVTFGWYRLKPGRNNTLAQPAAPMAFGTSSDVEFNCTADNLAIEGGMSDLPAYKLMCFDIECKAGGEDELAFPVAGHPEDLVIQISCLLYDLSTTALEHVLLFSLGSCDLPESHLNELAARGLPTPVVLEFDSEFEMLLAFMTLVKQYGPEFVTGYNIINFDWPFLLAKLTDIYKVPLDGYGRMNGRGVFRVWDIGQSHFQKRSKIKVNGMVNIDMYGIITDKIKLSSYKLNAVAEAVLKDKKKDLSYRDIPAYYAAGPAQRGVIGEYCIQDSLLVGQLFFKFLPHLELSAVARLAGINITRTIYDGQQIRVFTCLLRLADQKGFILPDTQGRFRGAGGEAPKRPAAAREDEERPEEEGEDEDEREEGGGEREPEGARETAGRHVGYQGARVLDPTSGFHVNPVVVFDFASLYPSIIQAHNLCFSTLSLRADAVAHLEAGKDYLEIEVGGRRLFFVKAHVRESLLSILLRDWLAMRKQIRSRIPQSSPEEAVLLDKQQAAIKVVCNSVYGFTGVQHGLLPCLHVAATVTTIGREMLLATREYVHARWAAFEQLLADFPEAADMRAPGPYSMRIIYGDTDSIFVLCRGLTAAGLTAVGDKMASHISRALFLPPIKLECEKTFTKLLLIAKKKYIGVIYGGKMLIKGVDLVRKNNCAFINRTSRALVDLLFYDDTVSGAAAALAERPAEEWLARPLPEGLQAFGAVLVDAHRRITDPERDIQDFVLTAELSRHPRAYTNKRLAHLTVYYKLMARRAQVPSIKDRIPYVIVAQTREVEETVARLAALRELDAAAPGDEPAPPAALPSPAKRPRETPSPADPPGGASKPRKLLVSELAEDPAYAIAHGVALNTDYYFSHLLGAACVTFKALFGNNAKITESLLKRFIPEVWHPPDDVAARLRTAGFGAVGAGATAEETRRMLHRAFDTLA
Chain of HCMV DNA polymerase (P08546 whole entry): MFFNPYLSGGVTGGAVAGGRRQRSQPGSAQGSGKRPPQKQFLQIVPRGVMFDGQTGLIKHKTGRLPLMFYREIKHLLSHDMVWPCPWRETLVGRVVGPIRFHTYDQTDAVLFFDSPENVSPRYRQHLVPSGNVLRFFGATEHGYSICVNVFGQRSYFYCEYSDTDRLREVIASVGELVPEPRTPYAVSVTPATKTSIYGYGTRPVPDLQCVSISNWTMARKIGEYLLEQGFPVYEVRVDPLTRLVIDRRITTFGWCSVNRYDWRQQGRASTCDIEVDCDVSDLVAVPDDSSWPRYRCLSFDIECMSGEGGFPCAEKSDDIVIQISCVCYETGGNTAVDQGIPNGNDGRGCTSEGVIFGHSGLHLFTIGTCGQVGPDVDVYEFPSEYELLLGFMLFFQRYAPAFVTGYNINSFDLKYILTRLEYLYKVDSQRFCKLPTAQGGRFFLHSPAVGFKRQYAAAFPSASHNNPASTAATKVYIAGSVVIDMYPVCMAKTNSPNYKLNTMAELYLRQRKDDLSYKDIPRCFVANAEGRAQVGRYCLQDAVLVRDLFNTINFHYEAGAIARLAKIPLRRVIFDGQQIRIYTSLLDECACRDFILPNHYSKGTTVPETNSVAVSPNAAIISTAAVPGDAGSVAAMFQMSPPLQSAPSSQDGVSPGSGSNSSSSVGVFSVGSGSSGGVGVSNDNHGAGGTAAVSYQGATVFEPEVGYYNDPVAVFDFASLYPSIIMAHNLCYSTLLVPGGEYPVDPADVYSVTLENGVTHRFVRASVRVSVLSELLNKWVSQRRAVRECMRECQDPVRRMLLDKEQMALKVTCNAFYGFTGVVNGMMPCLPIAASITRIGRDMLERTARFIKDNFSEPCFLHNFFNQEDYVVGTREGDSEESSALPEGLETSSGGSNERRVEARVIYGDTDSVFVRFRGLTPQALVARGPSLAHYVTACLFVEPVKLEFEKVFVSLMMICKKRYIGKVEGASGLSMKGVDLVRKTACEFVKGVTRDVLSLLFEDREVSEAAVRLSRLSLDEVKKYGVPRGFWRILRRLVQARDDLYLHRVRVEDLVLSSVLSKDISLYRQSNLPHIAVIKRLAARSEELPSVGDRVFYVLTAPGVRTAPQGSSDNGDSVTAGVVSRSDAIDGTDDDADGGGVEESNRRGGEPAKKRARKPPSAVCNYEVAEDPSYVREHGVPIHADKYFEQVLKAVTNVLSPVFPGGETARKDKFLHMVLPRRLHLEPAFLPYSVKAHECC

In the case of `Cc1ccnc2c1NC(=O)c1cccnc1N2C1CC1` [Nevirapine], the half-inhibitory concentration (IC50) was over 100 µM against HSV-1 DNA polymerase (IC50 HSV-1 DNA pol, [^3H]dGTP); over 100 µM against HSV-1 DNA polymerase (IC50 HSV-1 DNA pol, [^3H]dTTP); over 250 µM against HCMV DNA polymerase (IC50 HCMV DNA pol, [^3H]dGTP); over 250 µM at HCMV DNA polymerase (IC50 HCMV DNA pol, [^3H]dTTP); over 250 µM in [1]; over 250 µM in [2].
Consider `Cn1c2ccccc2c2c1cc(C#N)c(=O)n2-c1ccc([N+](=O)[O-])cc1` [INDOPY], for which the IC50 at HIV-1 RT (setting [3]) is 0.26 ± 0.07 µM; on HIV-1 RT (setting [4]), over 200 µM; on HSV-1 DNA polymerase (setting [5]), over 100 µM; on HSV-1 DNA polymerase (setting [6]), over 100 µM; on HCMV DNA polymerase (setting [7]), over 100 µM; on HCMV DNA polymerase (setting [8]) it was over 100 µM. Besides, the IC50 in assay [1] (setting [9]) and in assay [2] (setting [10]) was over 100 µM throughout. Besides, the “Fold-resistance compared to wild-type” value in the assay with HIV-1 RT F61A (Poly rA.dT [^3H]dTTP) was 2.2 fold; in the assay with HIV-1 RT F61A (Poly rI.dC [^3H]dCTP), 1.9 fold; in the assay with HIV-1 RT K65R (Poly rA.dT [^3H]dTTP) it was 1.0 fold; with HIV-1 RT K65R (Poly rI.dC [^3H]dCTP) it was 1.3 fold; with HIV-1 RT K70E (Poly rA.dT [^3H]dTTP), 1.5 fold; in the assay on HIV-1 RT K70E (Poly rI.dC [^3H]dCTP), 0.6 fold. In addition, the “Fold-resistance compared to wild-type” value with HIV-1 RT K70Q was determined as 0.7 fold; in the assay with HIV-1 RT K70R, 0.6 fold; in the assay on HIV-1 RT V75I, 1.0 fold; with HIV-1 RT E138K (Poly rA.dT [^3H]dTTP), 0.7 fold; in the assay on HIV-1 RT E138K (Poly rI.dC [^3H]dCTP), 1.0 fold; in the assay on HIV-1 RT Q151M (Poly rA.dT [^3H]dTTP) it was 1.6 fold. The “Fold-resistance compared to wild-type” value with HIV-1 RT Q151M (Poly rI.dC [^3H]dCTP) was 0.2 fold; in the assay with HIV-1 RT M184I, at least 6.7 fold; in the assay with HIV-1 RT M184V it was over 6.7 fold; with HIV-1 RT M184I + E138K (Poly rA.dT [^3H]dTTP) it was 1.1 fold; in the assay with HIV-1 RT M184I + E138K (Poly rI.dC [^3H]dCTP), 0.6 fold; with HIV-1 RT M184V + Y115F, at least 6.7 fold. Moreover, the “Fold-resistance compared to wild-type” value with HIV-1 RT M184V + E138K is listed as 1.0 fold; in the assay on HIV-1 RT L100I it was 3.9 fold; in the assay on HIV-1 RT K103N (Poly rA.dT [^3H]dTTP) it was 0.6 fold; with HIV-1 RT K103N (Poly rI.dC [^3H]dCTP), 1.1 fold; with HIV-1 RT V106A (Poly rA.dT [^3H]dTTP) it was 1.0 fold; in the assay with HIV-1 RT V106A (Poly rI.dC [^3H]dCTP), 0.4 fold. For the same compound, the “Fold-resistance compared to wild-type” value in the assay with HIV-1 RT Y181C (Poly rA.dT [^3H]dTTP) was 1.3 fold; in the assay on HIV-1 RT Y181C (Poly rI.dC [^3H]dCTP) it was at least 6.7 fold.
In the case of `O=C(O)P(=O)(O)O` [PFA], the half-maximal inhibitory concentration (IC50) on HIV-1 RT (setting [3]) is 0.55 ± 0.01 µM; at HIV-1 RT (setting [4]), 17 ± 2 µM; on HSV-1 DNA polymerase (setting [5]), 1.6 ± 0.8 µM; on HSV-1 DNA polymerase (setting [6]) it was 3.5 ± 1.7 µM; at HCMV DNA polymerase (setting [7]), 7 ± 0.7 µM; at HCMV DNA polymerase (setting [8]), 9.4 ± 6 µM. For the same compound, the IC50 is 56 ± 12 µM in assay [1] (setting [9]) and over 100 µM in assay [2] (setting [10]).
Turning to `Nc1nc2c(ncn2[C@H]2CC[C@@H](COP(=O)(O)OP(=O)(O)OP(=O)(O)O)O2)c(=O)[nH]1` [ddGTP, 2′,3′-dideoxyguanosine-5′-triphosphate], the IC50 was over 100 µM at HIV-1 RT (IC50 HIV-1 RT, poly rA.dT, [^3H]dTTP); 0.41 ± 0.02 µM against HIV-1 RT (IC50 HIV-1 RT, poly rC.dG, [^3H]dGTP); 4.5 ± 1.2 µM on HSV-1 DNA polymerase (IC50 HSV-1 DNA pol, [^3H]dGTP); over 100 µM on HSV-1 DNA polymerase (IC50 HSV-1 DNA pol, [^3H]dTTP); 48 ± 15 µM against HCMV DNA polymerase (IC50 HCMV DNA pol, [^3H]dGTP); over 100 µM against HCMV DNA polymerase (IC50 HCMV DNA pol, [^3H]dTTP). The IC50 in assay [1] is 73 ± 8 µM; in assay [2], 2.2 ± 1.8 µM.
